{"source": "patent US20170105979A1", "about": "“USE OF A TORASEMIDE-BASED VETERINARY COMPOSITION FOR LOW-DOSE ADMINISTERING” (VIRBAC, priority 2014, published 2017)", "key": {"[1]": {"settings": "prolonged treatments of 14 days; torasemide 0.4 mg/kg/day; cited from earlier work"}, "[2]": {"experiment": "water consumption over 24 h in treated healthy dogs", "assay_type": "in vivo, female Beagle dogs", "settings": "FIG. 4", "description": "(§1) Several criteria were evaluated in order to determine the efficacy of this dosage: • urine volume • water consumption • urinary sodium clearance • urinary potassium clearance • osmolar clearance • free-water clearance • urinary fraction excretion of sodium • urinary fraction excretion of potassium. […] The following measurements are carried out: • →urine: volume, pH, creatinine, osmolarity, sodium, potassium; • →plasma: sodium, potassium, urea, aldosterone."}, "[3]": {"settings": "7 days, cited from earlier work; for clinical state of the disease: furosemide 5.13 mg/kg/day or torasemide 0.5 mg/kg/day, oral twice-daily"}, "[4]": {"settings": "cited from earlier work"}, "[5]": {"settings": "single administration, healthy rats and dogs; cited from earlier work"}, "[6]": {"experiment": "urine volume over 24 h in treated healthy dogs", "assay_type": "in vivo, female Beagle dogs", "settings": "FIG. 3", "description": "as §1"}, "[7]": {"experiment": "plasma aldosterone concentration (innocuousness)", "assay_type": "in vivo, female Beagle dogs", "settings": "FIG. 8"}, "[8]": {"experiment": "urinary sodium clearance in healthy female Beagle dogs", "assay_type": "in vivo", "description": "Several criteria were evaluated in order to determine the efficacy of this dosage: • urine volume • water consumption • urinary sodium clearance • urinary potassium clearance • osmolar clearance • free-water clearance • urinary fraction excretion of sodium • urinary fraction excretion of potassium. […] The following measurements are carried out: • →urine: volume, pH, creatinine, osmolarity, sodium, potassium; • →plasma: sodium, potassium, urea, aldosterone. In this experiment, torasemide is tested at two single doses: 0.05 mg/kg or 0.5 mg/kg for a daily administration for three weeks. The continuous administration of diuretics causes a net deficit of sodium ions in the body, but renal compensation mechanisms adjust sodium excretion in line with sodium intake. This phenomenon is known as “diuretic braking”. […] In the experimental studies described above, carried out on healthy dogs, the modification of urinary sodium excretion by torasemide is evaluated by calculating urinary sodium clearance according to the following equation: Urinary sodium concentration×total urine volume/plasma sodium concentration"}, "[9]": {"experiment": "plasma creatinine and creatinine clearance (innocuousness)", "assay_type": "in vivo, female Beagle dogs", "settings": "torasemide 0.05 mg/kg/day", "description": "Other criteria were evaluated in order to determine the safety of this dosage: • plasma creatinine • creatinine clearance • plasma urea • plasma aldosterone. […] The following measurements are carried out: • →urine: volume, pH, creatinine, osmolarity, sodium, potassium; • →plasma: sodium, potassium, urea, aldosterone."}, "[10]": {"experiment": "plasma urea concentration (innocuousness)", "assay_type": "in vivo, female Beagle dogs", "settings": "FIG. 7"}, "[11]": {"settings": "0.2 mg/kg/day in the morning for 28 days, dogs with congestive heart failure; cited from earlier work"}, "[12]": {"experiment": "urinary fractional excretion of sodium (FENa) in healthy dogs", "assay_type": "in vivo, female Beagle dogs", "settings": "single (0.05 or 0.5 mg/kg) and repeated administrations for three weeks; FIGS. 9 and 10", "description": "One of the solutions for making the link between clinical and experimental is the calculation of the fractional excretion of sodium. This value is the ratio of the urinary sodium clearance to the urinary creatinine clearance. It requires assaying the creatinine in the plasma and in the urine, and also assaying the sodium in the plasma and the urine also, which is entirely envisionable “in the field”. This fractional excretion of sodium (FENa) represents the percentage of sodium filtered by the kidney that is finally excreted in the urine. It is determined using equation 1 below: where Naurine and […] are the sodium concentrations in the urine and the plasma, respectively, and Creatinineplasma and Creatinineurine are the creatinine concentrations in the plasma and the urine, respectively. The fractional excretion of sodium is the sodium excretion divided by the glomerular filtration rate (GFR), the GFR being estimated by the creatinine clearance."}, "[13]": {"experiment": "urinary potassium clearance in treated healthy dogs", "assay_type": "in vivo, female Beagle dogs", "settings": "first day of treatment, low-dose torasemide compared with other treatments; FIG. 5", "description": "as §1, with “aldosterone. The excretion of potassium ions in the urine of the treated dogs was measured over a period of 24 hours, and is presented in FIG. 5.” for “aldosterone.”"}, "[14]": {"settings": "high dose of torasemide (0.5 mg/kg/day), D18 and D28"}, "[15]": {"settings": "low dose of torasemide (0.05 mg/kg/day)"}}, "note": "Where two headings read alike, the source gives them in different places.", "data": [{"molecule": "NS(=O)(=O)c1cc(C(=O)O)c(NCc2ccco2)cc1Cl", "note": "[furosemide]", "values": [{"measurement": "diuretic resistance", "setting": "[1]", "value": "develop “diuretic resistance”"}, {"measurement": "water consumption over a period of 24 h", "setting": "[2]; furosemide 5 mg/kg/day, especially D18 and D28", "value": "clear increase"}, {"measurement": "clinical state of the disease", "setting": "[3]", "value": "maintain the disease in a stable state"}, {"measurement": "time after administration at which the diuretic effect decreases", "setting": "[4]; furosemide", "value": 6, "unit": "h"}, {"measurement": "time after administration at which the diuretic effect appears", "setting": "[4]; torasemide 0.2 mg/kg", "value": "approximately 1 hours"}, {"measurement": "dose-effect relationship for diuretic effect and ion secretion", "setting": "[5]", "value": "relationship between the dose administered and the size of the diuretic effect and of the ion secretion"}, {"measurement": "urine volume", "setting": "[6]; furosemide 5 mg/kg/day, from first day (D7), maintained over three weeks", "value": "clear increase"}]}, {"molecule": "Cc1cccc(Nc2ccncc2S(=O)(=O)NC(=O)NC(C)C)c1", "note": "[torasemide, N-[(isopropyl-amino)carbonyl]-4-[(3-methylphenyl)amino]pyridine-3-sulfonamide]", "values": [{"measurement": "plasma aldosterone concentration", "setting": "[7]; [14]", "value": "increase"}, {"measurement": "increase in plasma aldosterone concentration", "setting": "[7]; [15]", "value": "not observed"}, {"measurement": "diuretic braking effect", "setting": "[8]; dogs in good health, single dose of 0.5 mg/kg", "value": "occurs"}, {"measurement": "net effect over the course of 24 hours on urinary sodium clearance", "setting": "[8]; repeated administrations, high dose of torasemide 0.5 mg/kg/day, FIG. 2", "value": "no net effect"}, {"measurement": "effect on urinary sodium clearance", "setting": "[8]; repeated administrations, low dose of torasemide 0.05 mg/kg, D7, D18, D28, FIG. 2", "value": "effect that was clearly visible"}, {"measurement": "overall effect on sodium clearance over the course of 24 hours", "setting": "[8]; single dose, low dose 0.05 mg/kg compared with high dose 0.5 mg/kg, FIG. 1", "value": "higher than the overall effect of the high dose of torasemide (0.5 mg/kg)"}, {"measurement": "diuretic resistance", "setting": "[1]", "value": "this resistance does not occur"}, {"measurement": "plasma creatinine concentrations", "setting": "[1]", "value": "increase in plasma creatinine concentrations"}, {"measurement": "plasma creatinine concentration", "setting": "[9]; whatever the day of the sample", "value": "no effect"}, {"measurement": "creatinine clearance", "setting": "[9]; FIG. 6", "value": "no effect"}, {"measurement": "plasma urea concentration", "setting": "[10]; [14]", "value": "increase"}, {"measurement": "increase in plasma urea concentration", "setting": "[10]; [15]", "value": "not observed"}, {"measurement": "potassium excretion in the urine", "setting": "[11]", "value": "increased"}, {"measurement": "sodium excretion", "setting": "[11]", "value": "not increased"}, {"measurement": "water consumption over a period of 24 h", "setting": "[2]; torasemide 0.05 mg/kg/day", "value": "only a small change"}, {"measurement": "water consumption over a period of 24 h", "setting": "[2]; torasemide 0.5 mg/kg/day, especially D18 and D28", "value": "clear increase"}, {"measurement": "clinical state of the disease", "setting": "[3]", "value": "maintain the disease in a stable state"}, {"measurement": "diuretic effect compared with furosemide", "setting": "[3]; torasemide 0.5 mg/kg/day vs furosemide 5.13 mg/kg/day", "value": "better diuretic effect"}, {"measurement": "potassium excretion in the urine", "setting": "[4]; sick dogs, after 7 days, compared with furosemide", "value": "less than that observed for the dogs treated with furosemide"}, {"measurement": "persistence of the diuretic effect", "setting": "[4]; torasemide 0.2 mg/kg", "value": 12, "unit": "h"}, {"measurement": "dose-effect relationship for diuretic effect and ion secretion", "setting": "[5]", "value": "relationship between the dose administered and the size of the diuretic effect and of the ion secretion"}, {"measurement": "fractional excretion of sodium", "setting": "[12]", "value": "in agreement with those obtained by directly measuring the urinary sodium clearance"}, {"measurement": "effect on potassium ion excretion in the urine", "setting": "[13]", "value": "lower than with the other treatments"}, {"measurement": "urine volume", "setting": "[6]; torasemide 0.05 mg/kg/day, D7, D18, D28", "value": "do not show any change"}, {"measurement": "urine volume", "setting": "[6]; torasemide 0.5 mg/kg/day, from first day (D7), maintained over three weeks", "value": "clear increase"}]}]}
